Where two headings read alike, the source gives them in different places.

The text below walks through data of patent US12497408B2, “Tetracyclic compounds and methods for the treatment of Zika virus infection” (priority 2021, dated 2025).

The experiment deals with ZIKV. The experiment is described as follows: ZIKV reporter virus-based antiviral screening on Huh7 cells. The conditions noted are these: Huh7 cells infected with recombinant luciferase reporter ZIKV (MOI about 0.1), luciferase signal. It is filed as cell-based, Zika virus. In outline: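 Huh7 cells in 2% FBS assay medium infected at MOI about 0.1 with Renilla or Nano luciferase ZIKV premixed with nine-point compound dilutions, 48 hrs at 37° C. Luciferase signal normalized to DMSO controls as 100%; viability optionally by CellTiter-Glo with Rlu virus.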
Background: Reporter assays use an easily measured gene product as a stand-in for the process of interest.

`COC(=O)N[C@H](C(=O)N1[C@H](C)CC[C@H]1c1nc(Cl)c(-c2cc3c4c(c2)OCc2cc(-c5[nH]c([C@@H]6CC[C@@H](C)N6C(=O)[C@@H](NC(=O)OC)C(C)(C)C(F)(F)F)nc5Cl)cc(c2-4)OC3)[nH]1)C(C)(C)C(F)(F)F` [Compound 65, dimethyl ((2S,2′S)-((2R,2′R,5S,5′S)-((5,10-dihydrochromeno[5,4,3-cde]chromene-2,7-diyl)bis(4-chloro-1H-imidazole-5,2-diyl))bis(2-methylpyrrolidine-5,1-diyl))bis(4,4,4-trifluoro-3,3-dimethyl-1-oxobutane-1,2-diyl))dicarbamate]: the EC50 (usually the midpoint of the concentration-response curve) (Zika virus, Huh-7, 48 h) was determined as 71.7 nM.

Consider `COC(=O)N[C@H](C(=O)N1[C@@H](C)CC[C@H]1c1nc(Cl)c(-c2cc3c4c(c2)OCc2cc(-c5[nH]c([C@@H]6CC[C@H](C)N6C(=O)[C@@H](NC(=O)OC)C(C)C)nc5C(C)C)cc(c2-4)OC3)[nH]1)C(C)C` [Compound 43, methyl ((S)-1-((2S,5S)-2-(5-(7-(4-chloro-2-((2S,5S)-1-((methoxycarbonyl)-L-valyl)-5-methylpyrrolidin-2-yl)-1H-imidazol-5-yl)-5,10-dihydrochromeno[5,4,3-cde]chromen-2-yl)-4-isopropyl-1H-imidazol-2-yl)-5-methylpyrrolidin-1-yl)-3-methyl-1-oxobutan-2-yl)carbamate], for which the EC50 (Zika virus, Huh-7, 48 h) is 1.6 nM.

As for “methyl ((S)-1-((S)-2-(5-(7-(4-chloro-2-((S)-1-((methoxycarbonyl)-L-valyl)pyrrolidin-2-yl)-1H-imidazol-5-yl)-5,10-dihydrochromeno[5,4,3-cde]chromen-2-yl)-4-isopropyl-1H-imidazol-2-yl)pyrrolidin-1-yl)-3-methyl-1-oxobutan-2-yl)carbamate [Compound 77]”, where the note is “48 hrs, read-out: EC50”, the EC50 came out at 13.6 nM.

For `COC(=O)N[C@H](C(=O)N1[C@@H](C)CC[C@H]1c1nc(Cl)c(-c2cc3c4c(c2)OCc2cc(-c5[nH]c([C@@H]6CC[C@H](C)N6C(=O)[C@@H](NC(=O)OC)C(C)(C)C(F)(F)F)nc5Cl)cc(c2-4)OC3)[nH]1)C(C)(C)C(F)(F)F` [Compound 34, dimethyl ((2S,2′S)-((2S,2′S,5S,5′S)-((5,10-dihydrochromeno[5,4,3-cde]chromene-2,7-diyl)bis(4-chloro-1H-imidazole-5,2-diyl))bis(2-methylpyrrolidine-5,1-diyl))bis(4,4,4-trifluoro-3,3-dimethyl-1-oxobutane-l,2-diyl))dicarbamate], the EC50 (48 hrs, read-out: EC50) is 2.6 nM.

For `COC(=O)N[C@H](C(=O)N1[C@H](c2nc(Cl)c(-c3cc4c5c(c3)OCc3cc(-c6[nH]c([C@@H]7C[C@@H]8CCCC[C@@H]8N7C(=O)[C@@H](NC(=O)OC)C(C)C)nc6Cl)cc(c3-5)OC4)[nH]2)C[C@@H]2CCCC[C@@H]21)C(C)C` [Compound 37, dimethyl ((2S,2′S)-((2S,2′S,3aS,3a′S,7aS,7a′S)-((5,10-dihydrochromeno[5,4,3-cde]chromene-2,7-diyl)bis(4-chloro-1H-imidazole-5,2-diyl))bis(octahydro-1H-indole-2,1-diyl))bis(3-methyl-1-oxobutane-1,2-diyl))dicarbamate], the EC50 (Zika virus, Huh-7, 48 h) was 5.7 nM.

Regarding `COC(=O)N[C@H](C(=O)N1CC(C)(C)C[C@H]1c1nc(Cl)c(-c2cc3c4c(c2)OCc2cc(-c5[nH]c([C@@H]6CC(C)(C)CN6C(=O)[C@@H](NC(=O)OC)C(C)(C)C(F)(F)F)nc5Cl)cc(c2-4)OC3)[nH]1)C(C)(C)C(F)(F)F` [Compound 9, dimethyl ((2S,2′S)-((5S,5′S)-((5,10-dihydrochromeno[5,4,3-cde]chromene-2,7-diyl)bis(4-chloro-1H-imidazole-5,2-diyl))bis(3,3-dimethylpyrrolidine-5,1-diyl))bis(4,4,4-trifluoro-3,3-dimethyl-1-oxobutane-1,2-diyl))dicarbamate], where the note is “Zika virus, Huh-7, 48 h”, the EC50 is 4.6 nM.

On to `COC(=O)N[C@H](C(=O)N1CC2(CC2)C[C@H]1c1nc(Cl)c(-c2cc3c4c(c2)OCc2cc(-c5[nH]c([C@@H]6CC7(CC7)CN6C(=O)[C@@H](NC(=O)OC)C(C)(C)C)nc5C(C)C)cc(c2-4)OC3)[nH]1)C(C)(C)C` [Compound 82, methyl ((S)-1-((S)-6-(5-(7-(4-chloro-2-((S)-5-((S)-2-((methoxycarbonyl)amino)-3,3-dimethylbutanoyl)-5-azaspiro[2.4]heptan-6-yl)-1H-imidazol-5-yl)-5,10-dihydrochromeno[5,4,3-cde]chromen-2-yl)-4-isopropyl-1H-imidazol-2-yl)-5-azaspiro[2.4]heptan-5-yl)-3,3-dimethyl-1-oxobutan-2-yl)carbamate], for which the EC50 (Zika virus, Huh-7, 48 h) was found to be 2.6 nM.

On to `CC[C@H](C)[C@H](NC(=O)OC)C(=O)N1[C@H](c2nc(Cl)c(-c3cc4c5c(c3)OCc3cc(-c6[nH]c([C@@H]7C[C@@H]8CCCC[C@@H]8N7C(=O)[C@@H](NC(=O)OC)[C@@H](C)CC)nc6Cl)cc(c3-5)OC4)[nH]2)C[C@@H]2CCCC[C@@H]21` [Compound 39, dimethyl ((2S,2′S,3S,3′S)-((2S,2′S,3aS,3a′S,7aS,7a′S)-((5,10-dihydrochromeno[5,4,3-cde]chromene-2,7-diyl)bis(4-chloro-1H-imidazole-5,2-diyl))bis(octahydro-1H-indole-2,1-diyl))bis(3-methyl-1-oxopentane-1,2-diyl))dicarbamate], for which, where the note is “Zika virus, Huh-7, 48 h”, the EC50 turned out to be 10.9 nM.

On to `C=C(C)c1nc([C@@H]2C[C@H](C)CN2C(=O)[C@@H](NC(=O)OC)C(C)C)[nH]c1-c1cc2c3c(c1)OCc1cc(-c4[nH]c([C@@H]5C[C@H](C)CN5C(=O)[C@@H](NC(=O)OC)C(C)C)nc4C(=C)C)cc(c1-3)OC2` [Compound 71, dimethyl ((2S,2′S)-((3S,3′S,5S,5′S)-((5,10-dihydrochromeno[5,4,3-cde]chromene-2,7-diyl)bis(4-(prop-1-en-2-yl)-1H-imidazole-5,2-diyl))bis(3-methylpyrrolidine-5,1-diyl))bis(3-methyl-1-oxobutane-1,2-diyl))dicarbamate], for which, where the note is “Zika virus, Huh-7, 48 h”, the EC50 was 36.4 nM.

With `CC[C@H](C)[C@H](NC(=O)OC)C(=O)N1[C@H](C)CC[C@H]1c1nc(Cl)c(-c2cc3c4c(c2)OCc2cc(-c5[nH]c([C@@H]6CC[C@@H](C)N6C(=O)[C@@H](NC(=O)OC)[C@@H](C)CC)nc5Cl)cc(c2-4)OC3)[nH]1` [Compound 63, dimethyl ((2S,2′S,3S,3′S)-((2R,2′R,5S,5′S)-((5,10-dihydrochromeno[5,4,3-cde]chromene-2,7-diyl)bis(4-chloro-1H-imidazole-5,2-diyl))bis(2-methylpyrrolidine-5,1-diyl))bis(3-methyl-1-oxopentane-1,2-diyl))dicarbamate], the EC50 (Zika virus, Huh-7, 48 h) was found to be 16.4 nM.

Take `COC(=O)N[C@H](C(=O)N1CCC[C@H]1c1nc(Cl)c(-c2cc3c4c(c2)OCc2cc(-c5[nH]c([C@@H]6CCCN6C(=O)[C@@H](NC(=O)OC)c6ccccc6)nc5Cl)cc(c2-4)OC3)[nH]1)c1ccccc1` [Compound 23, dimethyl ((1S,1′S)-((2S,2′S)-((5,10-dihydrochromeno[5,4,3-cde]chromene-2,7-diyl)bis(4-chloro-1H-imidazole-5,2-diyl))bis(pyrrolidine-2,1-diyl))bis(2-oxo-1-phenylethane-2,1-diyl))dicarbamate]: the EC50 (Zika virus, Huh-7, 48 h) was determined as 52.4 nM.

As to `COC(=O)N[C@H](C(=O)N1CCCC[C@H]1c1nc(Cl)c(-c2cc3c4c(c2)OCc2cc(-c5[nH]c([C@@H]6CCCCN6C(=O)[C@@H](NC(=O)OC)C(C)C)nc5Cl)cc(c2-4)OC3)[nH]1)C(C)C` [Compound 13, dimethyl ((2S,2′S)-((2S,2′S)-((5,10-dihydrochromeno[5,4,3-cde]chromene-2,7-diyl)bis(4-chloro-1H-imidazole-5,2-diyl))bis(piperidine-2,1-diyl))bis(3-methyl-1-oxobutane-1,2-diyl))dicarbamate], for the setting “Zika virus, Huh-7, 48 h”, the EC50 is 4.5 nM.

In the case of `COC(=O)N[C@H](C(=O)N1CCC[C@H]1c1nc(C(C)C)c(-c2cc3c4c(c2)OCc2cc(-c5[nH]c([C@@H]6CCCN6C(=O)[C@@H](NC(=O)OC)C(C)C)nc5C(C)C)cc(c2-4)OC3)[nH]1)C(C)C` [Compound 19, dimethyl ((2S,2′S)-((2S,2′S)-((5,10-dihydrochromeno[5,4,3-cde]chromene-2,7-diyl)bis(4-isopropyl-1H-imidazole-5,2-diyl))bis(pyrrolidine-2,1-diyl))bis(3-methyl-1-oxobutane-1,2-diyl))dicarbamate], the EC50 (Zika virus, Huh-7, 48 h) stood at 15.8 nM.

Consider `CC[C@H](C)[C@H](NC(=O)OC)C(=O)N1CC(C)(C)C[C@H]1c1nc(Cl)c(-c2cc3c4c(c2)OCc2cc(-c5[nH]c([C@@H]6CC(C)(C)CN6C(=O)[C@@H](NC(=O)OC)[C@@H](C)CC)nc5Cl)cc(c2-4)OC3)[nH]1` [Compound 8, dimethyl ((2S,2′S,3S,3′S)-((5S,5′S)-((5,10-dihydrochromeno[5,4,3-cde]chromene-2,7-diyl)bis(4-chloro-1H-imidazole-5,2-diyl))bis(3,3-dimethylpyrrolidine-5,1-diyl))bis(3-methyl-1-oxopentane-1,2-diyl))dicarbamate], for which, under “Zika virus, Huh-7, 48 h”, the EC50 worked out at 4.4 nM.

`COC(=O)N[C@H](C(=O)N1C[C@H](C)C[C@H]1c1nc(Cl)c(-c2cc3c4c(c2)OCc2cc(-c5[nH]c([C@@H]6C[C@@H](C)CN6C(=O)[C@@H](NC(=O)OC)C(C)C)nc5C(C)C)cc(c2-4)OC3)[nH]1)C(C)C` [Compound 84, methyl ((S)-1-((2S,4R)-2-(5-(7-(4-chloro-2-((2S,4R)-1-((methoxycarbonyl)-L-valyl)-4-methylpyrrolidin-2-yl)-1H-imidazol-5-yl)-5,10-dihydrochromeno[5,4,3-cde]chromen-2-yl)-4-isopropyl-1H-imidazol-2-yl)-4-methylpyrrolidin-1-yl)-3-methyl-1-oxobutan-2-yl)carbamate]: the EC50 (Zika virus, Huh-7, 48 h) amounted to 3.3 nM.

Consider `COC(=O)N[C@H](C(=O)N1[C@@H](C)CC[C@H]1c1ncc(-c2cc3c4c(c2)OCc2cc(-c5[nH]c([C@@H]6CC[C@H](C)N6C(=O)[C@@H](NC(=O)OC)C(C)C)nc5Cl)cc(c2-4)OC3)[nH]1)C(C)C` [Compound 75, methyl ((S)-1-((2S,5S)-2-(4-chloro-5-(7-(2-((2S,5S)-1-((methoxycarbonyl)-L-valyl)-5-methylpyrrolidin-2-yl)-1H-imidazol-5-yl)-5,10-dihydrochromeno[5,4,3-cde]chromen-2-yl)-1H-imidazol-2-yl)-5-methylpyrrolidin-1-yl)-3-methyl-1-oxobutan-2-yl)carbamate], for which, under “Zika virus, Huh-7, 48 h”, the EC50 was 9.6 nM.
